Experimental data from paper PMC6752817, “Identification and characterization of a novel heparan sulfate-binding domain in Activin A longest variants and implications for function” (PLoS ONE, 2019).
“Also recorded” adds a separate entry of the source.

Tests used:
U937 cell surface = experiment: Peptide binding to intact U937 cells, FACS; format: cell-based, human; conditions: formalin-fixed U937 cells; for Binding to U937 cell surface: biotinylated peptide complexed with NA-488, 2 hr on ice, FACS (FL1); for Binding to U937 cell surface in presence of heparin competitor: peptide complexed with NA-488, excess soluble heparin, FACS
Description: Fig 7 HBD peptides bind to the cell surface with avidity. A, U937 cells were incubated with peptide complexes consisting of biotinylated peptides pre-incubated with NA-488. Following incubation, the cells were washed, and bound peptide was assessed by FACS analysis. […] In contrast, Act A-X3^259-272 peptide fails to bind. Binding specificity was verified using a previously characterized peptide encompassing the high affinity HBD from BMP4. B, representative FACS plots show binding of Act A- X2^13-37 in the absence (blue line) or presence (red line) of heparin competitor. C, representative FACS plots showing binding of Act A- X2^13-37 (blue line), lack of binding by Act A-X3^259-272 (red line) and background signal generated by U937 cells alone (green line). Statistical Analysis (Student’s t test): NA488 vs ActA X2^13-37, NA488 vs BMP4: ****: P< = 0.0001, **: P< = 0.01.
U937 cells were washed with PBS and fixed with 2% buffered formalin for 20 min on ice. The cells were washed with PBS and blocked by incubation in PBS, 1% BSA for 20 min on ice. Approximately […] cells (100 μl) were incubated with peptide tetramers consisting of biotinylated peptide complexed with NA-488. Following incubation for 2 hr on ice, the cells were washed and analyzed on a BD Accuri Flow Cytometer (FL1 channel), located in the Flow Cytometry Core Laboratory at CHOP.

[1] = Solid-phase binding of biotinylated peptides (NA-HRP tetramers) to HS-coated plates; conditions: for Binding to substrate-bound HS: HS-coated 96-well plates, peptide tetramers with NA-HRP, PBST with 1% BSA, 2 hr, room temperature, OPD read at 450 nm; for Binding to HS in presence of heparin competitor: HS-coated plates, pre-incubation of peptide with excess soluble heparin
Description: Fig 6 Peptides corresponding to the novel HBD bind HS with high affinity. 96-well plates were coated with HS and incubated with tetrameric peptide complexes (HBC) for 2 hrs. Plates were washed, and bound peptides were assessed by addition of OPD substrate. A and B, schematic diagram depict the amino acid sequences of Act A- X2^13-37 and Act A- X3^259-272 peptides and their location within the full-length proteins, respectively. C, solid phase binding assays of Act A peptides to HS. […] Inset, double reciprocal plot that yields a Kd of 4 nM (n = 3) for Act A- X2^13-37.
Peptides encompassing the heparin binding domains, contained the putative Cardin-Weintraub (CW) motif and a minimum of 2 flanking amino acids on the N- and C- terminal sides of the domain. Three Glycine residues were added to the N-terminus of each peptide to provide a flexible linker between an N-terminal biotin tag and the peptide itself (See Table 6). Peptides were purified by reverse phase HPLC and peptide mass was confirmed by MALDI-TOF mass spectrometry. All peptides were synthesized and purified by Peptide 2 (Chantilly, VA). Where indicated, biotinylated peptides were oligomerized into tetramers by incubation with NAHRP (each avidin molecule binding 4 biotins ([57]) as described.
Nunc MaxiSorp flat bottom 96 well plates were coated with HS in 50 mM carbonate buffer (pH 9.4) overnight at 4°C as described. All binding assays were carried out in 1 x PBS, 0.1% tween 20 (PBST) containing 1% bovine serum albumin. Plates were incubated with peptides for a minimum of 2 hr at room temperature with gentle shaking. At the termination of the assay, the plates were washed 3 times with PBST and a final rinse with PBS. Plates were developed by addition of HRP substrate O-phenylenediamine dihydrochloride (OPD) in Citrate-Phosphate buffer (25 mM citric acid, 50 mM sodium phosphate, pH 5) and read at 450 nm in a Bio-Tek Synergy HT plate reader.

[2] = system: Act A X1 and X2 variant transcripts in U937 cells; experiment: Induction of Act A variant transcripts in U937 cells, PCR; format: cell-based, human
Description: (§1) Total RNA was isolated using TRIzol Reagent (Thermo-Fisher) following the manufacturers protocol. Five μg of glycogen (Thermo-Fisher AM9510) was added to the aqueous phase prior to the addition of isopropanol to facilitate RNA precipitation. For some experiments, RNA quantification was determined using a Nanodrop spectrophotometer. cDNA was prepared from 2 μg of purified RNA, using oligo dT as primer, supplied with the Verso cDNA synthesis kit (Thermo-Fisher # AB1453A) or SuperScript IV Reverse Transcriptase (Thermo-Fisher #18090010) following the manufactures protocol. All PCR reactions were performed using Act A specific primers and GoTaq Green Master Mix (Promega) following the manufacturers protocols. PCR reactions were optimized by gradient PCR, using an Applied Biosystems Veriti Thermal Cycler. PCR products were size fractionated on 1% agarose gels, the bands were isolated, DNA was extracted from gel slices using Micro Bio-Spin columns (Bio Rad# 7326204) and sequenced. All DNA sequencing was performed by the NAPCore Facility at CHOP.
(§2) U937 (human pro-monocytic) and THP-1 (human monocytic) cell lines were grown in RPMI containing 10% fetal bovine serum in a humidified atmosphere of 5% CO2. Cells were treated with PMA (100 ng/ml; 160 nM) for 4 hr (23) or GM-CSF (1 ng/ml) for 8 hr in RPMI containing 1% fetal bovine serum.

[3] = rat, in vivo, iv; cited from earlier work
Text: As pointed out above, past and recent studies on Act A biology and function have made use of the X3 variant or the mature protein but to our knowledge, the X1 or X2 variants have not been tested. For example, Harrington et al. used recombinant Act A mature protein to clarify the structural basis by which Fs inhibits Act A signaling. […] Wang et al. carried out a detailed analysis of mechanisms involved in initiation of Act A biological activity, using the X3 ...

[4] = system: Act A X1 and X2 variant transcripts in THP1 cells; experiment: Induction of Act A variant transcripts in THP1 cells, PCR; format: cell-based, human; conditions: GM-CSF 1 ng/ml for 8 hr
Description: as §1, §2

[5] = system: Act A expression in purified human monocytes; conditions: ref [41]; cited from earlier work
Description: It should be noted that the above transcript/protein predictions of variants are based on computational genomic analyses that were conducted initially by the MGC team using ESTs to explore the transcriptome and then subsequently confirmed by whole genome sequencing and bioinformatics. Much of the past and recent extensive literature on Act A has utilized recombinant forms of the X3 variant, but currently there is little information about the expression and structural characteristics of the X1 and X2 variants. Thus, we first asked whether these variants are expressed by myel ...

[6] = system: TIEG expression in THP1 cells; experiment: TIEG (KLF10) mRNA induction in THP1 cells, qPCR; format: cell-based, human; conditions: 2 hr, rhAct A or conditioned medium of AD293 cells transfected with X2 or X3 constructs
Text: Fig 4 Expression and secretion of Act A variants. Expression constructs for full length X1, X2 and X3 variants were cloned into pcDNA 3.1 and transfected into AD293 and COS1 cells. A, diagram of Act A expression cassette with His tag on the 3’ end. […] Untransfected cells are shown in lane 2. […] D, immunoblots of conditioned medium samples separated under reducing conditions and probed with anti-His tag antibody. […] The band was undetectable in conditioned medium from cells transfected with the X1 vector (lanes 1, 4 and 9) or un-transfected cells (lanes 7 and 8). Lanes 4–6 are a longer exposure of lanes 1–3. E, THP1 cells were incubated for 2 hrs with conditioned media from AD293 cells that were untransfected (U) or transfected with X2 or X3 constructs. The cells were processed for q-PCR analysis of TIEG expression, an early response gene induced by Act A and TGF-β. […]
To assess biological activity of the expressed Act A variants, THP1 cells were incubated with 3 ml of conditioned medium obtained from cells transfected with each Act A variant for 2 hr, in the absence or presences of an ActA neutralizing antibody (BioLegend # 94746) the cells were pelleted and total RNA was isolated using TRIzol Reagent as described above. Induction of Kruppel-like factor 10 (KLF10, TIEG; accession NM_005655) mRNA, an early response gene induced by Act A and TGF-β was assessed by qPCR.

mutant ALK2 = conditions: ref [52]; cited from earlier work
Text: In the musculoskeletal research field, interest in Act A biology has been re-invigorated by recent evidence of its pathogenic roles in the pediatric congenital disorder Fibrodysplasia Ossificans Progressiva (FOP). FOP is characterized by episodic formation of extraskeletal cartilage and bone tissue–a process collectively termed heterotopic ossification (HO)—at multiple sites, eventually involving much of the body. HO is preceded by local inflammation and over time, the accumulated ectopic tissue causes multiple health problems and impediments—including skeletal deformities, chron ...

[7] = PMA 100 ng/ml (160 nM) for 4 hr, semi-quantitative PCR

[B]-GGGGKKKKKEEEGEGKKK [X3^259-272]
Binding to U937 cell surface (U937 cell surface): failed to interact with the cells; also recorded: failed to interact with substrate-bound HS or the cell surface | Binding to U937 cell surface (U937 cell surface; listed as Act A-X3^259-272): fails to bind | Binding to substrate-bound HS [1]: failed to interact with HS at any concentration tested; also recorded: failed to interact with substrate-bound HS | Binding to substrate-bound HS ([1]; listed as Act A-X3^259-272): displays minimal binding

CCCCCCCCCCCCCC(=O)O[C@@H]1[C@@H](C)[C@@]2(O)[C@@H](C=C(CO)C[C@]3(O)C(=O)C(C)=C[C@@H]23)[C@@H]2C(C)(C)[C@]12OC(C)=O [PMA, Phorbol 12-myristate 13-acetate, reference compound]
Expression of Act A X1 variant transcript in U937 cells [2, 7]: undetectable | Expression of Act A X2 variant transcript in U937 cells [2, 7]: stimulated expression of transcripts encoding the X2 variant in U937 cells; also recorded: induced expression of Act A-X2

mature protein: mature Act A protein (cited studies)
Circulating half-life (t1/2 fast) [3]: 5.5 min

granulocyte macrophage-colony stimulating factor [GM-CSF]
Expression of Act A X1 variant transcript in U937 cells ([2]; GM-CSF 1 ng/ml for 8 hr, PCR): only stimulated expression of the X1 variant in U937 cells; also recorded: induced expression of both Act A-X2 and -X1 | Expression of Act A X2 variant transcript in U937 cells ([2]; GM-CSF 1 ng/ml for 8 hr, PCR): upregulated the X2 variant in both cell lines; also recorded: induced expression of both Act A-X2 and -X1 | Expression of Act A X2 variant transcript in THP1 cells [4]: upregulated the X2 variant in both cell lines; also recorded: induced expression of Act A-X2 | Induction of Act A expression in purified human monocytes [5]: induces strong expression of Act A in purified human monocytes

[B]-GGGLKRRRKKKTPKKKIKKSTHTKKPAR [X2^13-37, biotinylated synthetic peptide encompassing the novel HBD, identical in X1 and X2]
Binding to U937 cell surface (U937 cell surface): readily and efficiently interacted with the cell surface | Binding to U937 cell surface (U937 cell surface; listed as Act A- X2^13-37): readily binds to the cell surface | Binding to U937 cell surface in presence of heparin competitor (U937 cell surface): binding was blocked by pre-treatment with heparin | Binding to U937 cell surface in presence of heparin competitor (U937 cell surface; listed as Act A- X2^13-37): its interaction is blocked by soluble heparin competitor | Binding to substrate-bound HS [1]: interacted with HS with high affinity | Binding to substrate-bound HS ([1]; listed as Act A- X2^13-37): binds HS with high affinity | Binding to HS in presence of heparin competitor [1]: binding was blocked by pre-incubation of the peptide with excess heparin | Binding to HS in presence of heparin competitor ([1]; listed as Act A- X2^13-37): its binding is blocked by addition of soluble heparin

B1: rhAct A: commercially available recombinant human Act A (protein, UniProt P08476 311-426, looked up)
Inhibin beta A chain: GLECDGKVNICCKKQFFVSFKDIGWNDWIIAPSGYHANYCEGECPSHIAGTSGSSLSFHSTVINHYRMRGHSPFANLKSCCVPTKLRPMSMLYYDDGQNIIKKDIQNMIVEECGCS
modifications: Inhibin beta A chain
Induction of TIEG expression (words) [6]: TIEG was rapidly upregulated | Induction of TIEG expression (words) ([6]; listed as rhActA): up-regulated

B2: activin A (protein, UniProt P08476 311-426, looked up)
Inhibin beta A chain: GLECDGKVNICCKKQFFVSFKDIGWNDWIIAPSGYHANYCEGECPSHIAGTSGSSLSFHSTVINHYRMRGHSPFANLKSCCVPTKLRPMSMLYYDDGQNIIKKDIQNMIVEECGCS
modifications: Inhibin beta A chain
pSMAD1/5/8 signaling through mutant ALK2 (mutant ALK2): elicits pSMAD1/5/8 signaling
